Experiments:
[1] = DSC doublet peak area (α-structure) of hair after heat cycles
Experimental: Normal blonde hair was bleached with Clairol Basic White Bleach (40 volume H2O2) for 20 min at standard room temperature and humidity. The bleached swatches were rinsed with tap water, and soaked in an excess of deionized water for 2 hours. The swatches were air-dried and equilibrated for 48 hours prior to further treatment. Some of the bleached swatches were subsequently “permed” using a Reforming Lotion (10% TGA, pH 8.8, 20 minutes) and then neutralized with 2% H2O2, pH 3 (5 minutes). The bleached/permed swatches were rinsed with tap water, and soaked in an excess of deionized water for 2 hours. The swatches were air-dried and equilibrated for 48 hours prior to further treatment. The swatches that were heat treated were treated with 0.06M solutions of hexoses and pentoses for 10 min at 45° C. and then were heated for 12 cycles. The swatches were rinsed after the heat application.
In the DSC tests, finely cut hair (4-5 mg) was crimped in an aluminum pan that was punctured prior to each run. The samples were heated from 25° C. to 300° C., at a scanning rate of 20° C./min, with 5 runs per treatment. The results were averaged.
Normal blonde hair was bleached with Clairol Basic White Bleach, 40 volume H2O2, for 20 min at room temperature. One batch of normal and bleached hair swatches underwent five heat cycles at 130° C., where one treatment cycle involved the following steps (1-4):
1. The swatches were treated with 0.06 M solutions of monosaccharides in deionized water (about 1 wt %) for 10 min at 45° C.
2. The treated swatches were blow-dried for 1 min.
3. The heat was applied for 1 min in the form of a flat hair iron Windmere “Solid Gold” (130° C.).
4. The swatches were rinsed and blot-dried with a paper-towel.
The treatment solutions included four pentoses (D-xylose, D-arabinose, D-lyxose, and D-ribose, 1% each) and one hexose (1.2% D-glucose). Deionized water was used as a control treatment. After the heat experiment, the hair was rinsed in water, air-dried, and equilibrated for 24 hours in the humidity chamber at 25° C. and 50% RH prior to further testing. These swatches are referred to as treated at 130° C.
A second batch of normal and bleached hair swatches were treated in a similar way and blow-dried, without application of the hot iron. The treatment was also repeated 5 times, the swatches from the second batch are referred to as treated at 45° C.
Normal blonde hair was divided in two batches. The hair from the first batch was bleached with Clairol Basic White Bleach, 40 volume H2O2, for 20 min at room temperature and humidity. The hair from the second batch was first bleached as above, and then permed: Reforming lotion-10% Thioglycolic acid, pH 8.8, 20 min; neutralizer-2% hydrogen peroxide, 5 min. The oxidatively damaged hair was equilibrated for 24 hours prior to further testing.
Both the bleached and the bleached/permed hair were subjected to heat treatment, as in Example 2. The heat treatment experiment involved 12 heat cycles including application of sugar or control solution before each heat application, and rinsing after the heat application. Deionized water was used as a control treatment.
After the heat experiment, the hair was rinsed in water, air-dried, and equilibrated for 24 h in the humidity chamber at 25° C. and 50% RH prior to further testing. The effect of the hexoses vs. pentoses on the dry tensile strength (INSTRON) and the alpha-structure (doublet peak area, DSC) was tested on the bleached hair (Table 13). The effect of a hexose (D-glucose) vs. a pentose (D-Xylose) on wet tensile strength (DIA-STRON) was tested both on the bleached and the bleached/permed hair (Table 14). Application of 0.06M solutions of pentoses protected the bleached and the bleached/permed hair against thermal damage (α-structure; wet and dry tensile strength).

[2] = Wet tensile strength (Dia-Stron) after heat cycles; settings: for Work 25% (Wet): 0.06 M solutions; for Work 25% (Wet) / Extension-Break / Work 25% / Work-Break / Young's Modulus: n = 100 fibers; for Extension-Break / Work 25% / Work-Break / Young's Modulus: 0.06 M, DIA-STRON; for Dia-Stron, wet fibers Extension: 1.0% solution, n = 100
Experimental: Normal blonde hair was bleached with Clairol Basic White Bleach (40 volume H2O2) for 20 min at standard room temperature and humidity. The bleached swatches were rinsed with tap water, and soaked in an excess of deionized water for 2 hours. The swatches were air-dried and equilibrated for 48 hours prior to further treatment. Some of the bleached swatches were subsequently “permed” using a Reforming Lotion (10% TGA, pH 8.8, 20 minutes) and then neutralized with 2% H2O2, pH 3 (5 minutes). The bleached/permed swatches were rinsed with tap water, and soaked in an excess of deionized water for 2 hours. The swatches were air-dried and equilibrated for 48 hours prior to further treatment. The swatches that were heat treated were treated with 0.06M solutions of hexoses and pentoses for 10 min at 45° C. and then were heated for 12 cycles. The swatches were rinsed after the heat application. Tensile strength was determined using both the Instron (50 dry fibers per tests) and the Dia-Stron (100 wet fibers per test), with the stretching rate of 100 mm/min. The following parameters were determined: Young's Modulus (N/m^2), Work to stretch 25% (J/m^2); Extension to Break (degree of elongation) (%); Work to Break (J/m^2). Both the bleached and the bleached/permed hair were subjected to heat treatment, as in Example 2. The heat treatment experiment involved 12 heat cycles including application of sugar or control solution before each heat application, and rinsing after the heat application. Deionized water was used as a control treatment. After the heat experiment, the hair was rinsed in water, air-dried, and equilibrated for 24 h in the humidity chamber at 25° C. and 50% RH prior to further testing. The effect of the hexoses vs. pentoses on the dry tensile strength (INSTRON) and the alpha-structure (doublet peak area, DSC) was tested on the bleached hair (Table 13). The effect of a hexose (D-glucose) vs. a pentose (D-Xylose) on wet tensile strength (DIA-STRON) was tested both on the bleached and the bleached/permed hair (Table 14). Application of 0.06M solutions of pentoses protected the bleached and the bleached/permed hair against thermal damage (α-structure; wet and dry tensile strength).

[3] = DSC double peak area of relaxed hair after treatment; settings: for Double Peak Area: relaxed ethnic hair, 10 min at 45° C.
Experimental: Kinky hair was relaxed using 2.5% sodium hydroxide (20 min at room temperature). The hair was thoroughly rinsed with water, and a treatment solution was applied for 10 min at 45° C. Each of the following treatment solutions were tested: a) 1% D-xylose, b) 5% D-xylose, and c) deionized water-control treatment.

[4] = Hair chemical composition (lysine, arginine) after heat cycles; settings: 1.0% solution
Experimental: The repairing of the damaged hair by pentoses is further supported by changes in the hair chemical composition that are observed when the hair was treated with pentose solutions, followed by heat application. Specifically, the amounts of lysine and arginine decreased, as compared to the hair treated with water (Table 19). The change in the lysine/arginine content, in conjunction with the decreased extension to break, appears to indicate that some cross-linking processes occur when the hair is heated in the presence of pentoses.

[5] = bleached hair after 12 heat cycles, 0.06 M solutions
[6] = bleached hair after 12 heat cycles, 0.06 M solutions (Table 14)
[7] = bleached hair, 5 cycles at 45° C., 0.06 M solutions
[8] = bleached hair, 5 heat cycles at 130° C., 0.06 M solutions
[9] = bleached hair after 12 heat cycles
[10] = bleached/permed hair after 12 heat cycles
[11] = wet bleached hair (blonde hair in the source) after 12 heat cycles
[12] = wet bleached/permed hair after 12 heat cycles
[13] = bleached hair after 12 cycles at 130° C.
[14] = bleached/permed hair after 12 cycles at 130° C.

Compound | Doublet Peak Area [1, 5] | Doublet Peak Area [1, 6] | Doublet Peak Area [1, 7] | Doublet Peak Area [1, 8] | Work 25% (Wet) [2, 9] | Work 25% (Wet) [2, 10] | Extension-Break [2, 11] | Work 25% [2, 11] | Work-Break [2, 11] | Young's Modulus [2, 11] | Extension-Break [2, 12] | Work 25% [2, 12] | Work-Break [2, 12] | Young's Modulus [2, 12] | further results
O=C[C@H](O)[C@@H](O)[C@H](O)[C@H](O)CO [D-Glucose, reference compound] | 5.56 +/− 1.16 J/g hair | 5.56 +/− 1.16 J/g hair | 6.35 +/− 2.71 J/g hair | 5.37 +/− 1.22 J/g hair | 187.0 +/− 74.8 J/m^2 | 155.0 +/− 47.5 J/m^2 | 64.20 +/− 10.4% | 187.0 +/− 74.8 J/m^2 | 1,130 +/− 453 J/m^2 | 397.0 +/− 106.0 MN/m^2 | 63.50 +/− 7.65% | 155.0 +/− 47.5 J/m^2 | 979.0 +/− 300 J/m^2 | 136.0 +/− 92.5 MN/m^2 | protection against heat treatment based on tensile properties and DSC, in words ([2]; Example 2, 12 heat cycles): little or no protection
O=C[C@H](O)[C@@H](O)[C@H](O)CO [D-Xylose] | 9.74 +/− 2.13 J/g hair | 9.74 +/− 2.13 J/g hair | 8.41 +/− 1.33 J/g hair | 9.66 +/− 2.59 J/g hair | 432.0 +/− 137.0 J/m^2 | 199.0 +/− 74.2 J/m^2 | 52.80 +/− 9.29% | 432.0 +/− 137.0 J/m^2 | 1,600 +/− 526 J/m^2 | 434.0 +/− 99.1 MN/m^2 | 54.30 +/− 4.70% | 199.0 +/− 74.2 J/m^2 | 620.0 +/− 231.0 J/m^2 | 170.0 +/− 88.6 MN/m^2 | protection effect (normalized α-structure peak area), in words ([1]; bleached and bleached/permed hair, 12 heat cycles): protection effect was found; Normalized area ([1]; bleached hair, 12 heat cycles, 0.06 M): 9.74 +/− 2.13 J/g hair; Double Peak Area ([3]; 1% solution): 14.10 +/− 2.52 J/g hair; Double Peak Area ([3]; 5% solution): 21.35 +/− 19.02 J/g hair; protection of relaxed hair (α-structure, tensile strength, cuticle loss) compared to water, in words ([3]; relaxed kinky hair): protected; extension to break compared to non-treated or water-treated hair, in words ([2]; bleached and bleached/permed hair, 1% solution prior to heat application): significantly shorter; Dia-Stron, wet fibers Extension [2, 13]: 52.80 +/− 9.29%; Dia-Stron, wet fibers Extension [2, 14]: 54.30 +/− 4.70%; protection against heat (wet tensile properties) compared to water and 1.2% D-glucose, in words ([2]; wet bleached and bleached/permed hair, 12 heat cycles, 1% solution): statistically significant protection against heat; Arginine [4, 13]: 8.0 +/− 0.1 wt %; Arginine [4, 14]: 7.2 +/− 0.1 wt %; Lysine [4, 14]: 1.6 +/− 0.1 wt %
